From the supplement of paper PMC10307832

Assays:
Assay in all cases: relative viability (nuclei count vs DMSO), 5 days (fraction); higher = more cells survive
[1] = system: A549
Summary of the method: (§1)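 Medians of duplicate plates are given as relative viability. That measure is the nuclei count in treated wells divided by the count in vehicle wells. Counts were taken on 4× images of lung cancer cell lines in 1536-well plates, 5 days after pin-tool dosing the day after seeding with one drug alone or a fixed anchor-drug dose plus five library-drug doses (not always all listed) in √10 steps.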

[2] = system: UMC-11
Summary of the method: as §1

[3] = system: Calu-6
Summary of the method: as §1

[4] = system: EBC-1
Summary of the method: as §1

[5] = system: HCC-15
Summary of the method: as §1

[6] = system: NCI-H1623
Summary of the method: as §1

[7] = system: IA-LM
Summary of the method: as §1

[8] = system: NCI-H1395
Summary of the method: as §1

[9] = system: NCI-H1755
Summary of the method: as §1

[10] = system: EKVX
Summary of the method: as §1

[11] = system: NCI-H1703
Summary of the method: as §1

[12] = system: NCI-H1299
Summary of the method: as §1

[13] = system: LCLC-103H
Summary of the method: as §1

Structure (SMILES): Cc1sc2c(c1C)C(c1ccc(Cl)cc1)=N[C@@H](CC(=O)OC(C)(C)C)c1nnc(C)n1-2 [JQ1] + COc1cc2c(Oc3ccc(NC(=O)C4(C(=O)Nc5ccc(F)cc5)CC4)cc3F)ccnc2cc1OCCCN1CCOCC1 [Foretinib] (partner 0.25 µM)
- relative viability ([1]; first compound 0.04 µM): 0.881
- relative viability ([1]; first compound 0.1265 µM): 0.76
- relative viability ([1]; first compound 0.4 µM): 0.878
- relative viability ([1]; first compound 1.265 µM): 0.32
- relative viability ([1]; first compound 4 µM): 0.194
- relative viability ([2]; first compound 0.04 µM): 0.954
- relative viability ([2]; first compound 0.1265 µM): 0.663
- relative viability ([2]; first compound 0.4 µM): 0.372
- relative viability ([2]; first compound 1.265 µM): 0.286
- relative viability ([2]; first compound 4 µM): 0.238
- relative viability ([3]; first compound 0.04 µM): 0.848
- relative viability ([3]; first compound 0.1265 µM): 0.79
- relative viability ([3]; first compound 0.4 µM): 0.756
- relative viability ([3]; first compound 1.265 µM): 0.478
- relative viability ([3]; first compound 4 µM): 0.406
- relative viability ([4]; first compound 0.04 µM): 0.098
- relative viability ([4]; first compound 0.1265 µM): 0.0891
- relative viability ([4]; first compound 0.4 µM): 0.0572
- relative viability ([4]; first compound 1.265 µM): 0.0617
- relative viability ([4]; first compound 4 µM): 0.0624
- relative viability ([5]; first compound 0.04 µM): 0.914
- relative viability ([5]; first compound 0.4 µM): 0.767
- relative viability ([5]; first compound 1.265 µM): 0.66
- relative viability ([5]; first compound 4 µM): 0.589
- relative viability ([6]; first compound 0.04 µM): 0.878
- relative viability ([6]; first compound 0.1265 µM): 0.809
- relative viability ([6]; first compound 0.4 µM): 0.716
- relative viability ([6]; first compound 1.265 µM): 0.496
- relative viability ([6]; first compound 4 µM): 0.441
- relative viability ([7]; first compound 0.04 µM): 0.943
- relative viability ([7]; first compound 0.1265 µM): 0.645
- relative viability ([7]; first compound 0.4 µM): 0.224
- relative viability ([7]; first compound 1.265 µM): 0.0743
- relative viability ([7]; first compound 4 µM): 0.0831
- relative viability ([8]; first compound 0.04 µM): 0.716
- relative viability ([8]; first compound 0.1265 µM): 0.955
- relative viability ([8]; first compound 0.4 µM): 1
- relative viability ([8]; first compound 1.265 µM): 0.732
- relative viability ([8]; first compound 4 µM): 0.525
- relative viability ([9]; first compound 0.04 µM): 0.896
- relative viability ([9]; first compound 0.1265 µM): 0.831
- relative viability ([9]; first compound 0.4 µM): 0.945
- relative viability ([9]; first compound 1.265 µM): 0.793
- relative viability ([9]; first compound 4 µM): 0.634
- relative viability ([10]; first compound 0.04 µM): 0.881
- relative viability ([10]; first compound 0.1265 µM): 0.448
- relative viability ([10]; first compound 0.4 µM): 0.787
- relative viability ([10]; first compound 1.265 µM): 0.655
- relative viability ([10]; first compound 4 µM): 0.512
- relative viability ([11]; first compound 0.04 µM): 0.298
- relative viability ([11]; first compound 0.1265 µM): 0.284
- relative viability ([11]; first compound 0.4 µM): 0.313
- relative viability ([11]; first compound 1.265 µM): 0.318
- relative viability ([11]; first compound 4 µM): 0.332
- relative viability ([12]; first compound 0.04 µM): 1.03
- relative viability ([12]; first compound 0.1265 µM): 0.947
- relative viability ([12]; first compound 0.4 µM): 0.819
- relative viability ([12]; first compound 1.265 µM): 0.558
- relative viability ([12]; first compound 4 µM): 0.34
- relative viability ([13]; first compound 0.04 µM): 0.765
- relative viability ([13]; first compound 0.1265 µM): 0.6
- relative viability ([13]; first compound 0.4 µM): 0.562
- relative viability ([13]; first compound 1.265 µM): 0.481
- relative viability ([13]; first compound 4 µM): 0.301
